Publication PMC6095626, “Screening of the Pathogen Box for inhibitors with dual efficacy against Giardia lamblia and Cryptosporidium parvum” (PLoS Neglected Tropical Diseases, 2018)

Experiments:
[1] = test system: C. parvum (UGA1 Nluc expressing strain in HCT-8 cells); experiment: microbe, parasite or virus in culture; type: cell-based, Cryptosporidium parvum; conditions: for Crypto (10 uM) Mean % inhibition: initial Pathogen Box screen, single concentration 10 µM, inhibition compared to DMSO wells; for C. parvum cell growth inhibition in the initial screen: 10 μM
Outline: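 Parasite growth quantified by NanoLuc luminescence from lysed infected HCT-8 cells, with EC50 fitted from dose curves. Compounds, single-dose 10 μM or serially diluted, were added to confluent 48 h monolayers before infection with bleached UGA1 Nluc oocysts.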

[2] = test system: G. lamblia trophozoites (luciferase expressing, WBC6); experiment: microbe, parasite or virus in culture; type: cell-based, Giardia lamblia; conditions: initial Pathogen Box screen, single concentration 16 µM, inhibition compared to DMSO wells
Outline: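 Incubation ran 24 h at 37 °C under anaerobic conditions, with compound added in equal volume to trophozoites (WBC6, luciferase-expressing, 250,000 cells/mL). Bioluminescence was the read-out, cross-checked by MOXI Z counts on a duplicate plate; metronidazole served as control (1:2 dilutions from 40 μM).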

Compound	Crypto (10 uM) Mean % inhibition [1]	Giardia (16 uM) Mean % inhibition [2]	C. parvum cell growth inhibition in the initial screen ([1]; 48 hours) [%]	EC50 ([1]; Nluc C. parvum in HCT-8 cells, 48 hours, read-out: C. parvum EC50) [µM]
CN1CCN(c2nccc3nc(-c4ccc(F)c(F)c4)[nH]c23)CC1 [MMV676260]	33%	29%		
Cc1cccc(-c2nc(Nc3ccncn3)c3sccc3n2)n1 [MMV688122]	93%	33%		
COc1cccc(CC(=O)N2CCC(n3c(C)nc4ccc(F)cc43)CC2)c1 [MMV020081]	X* (Mean or standard deviation are negative but not significantly different from the control to be a growth promoter)	X* (Mean or standard deviation are negative but not significantly different from the control to be a growth promoter)		
Nc1cccnc1Nc1ccc(Cl)cc1 [MMV676524]	83%	26%		
CC1CC1C(=O)NC1CCN(CC2(c3ccccc3)CCCCC2)CC1 (stereo not drawn) [MMV020120]	66%	2.27%		
CCCCc1ccc(C(=O)Nc2nccc3ccccc23)nc1 [MMV687254]	77%	X* (Mean or standard deviation are negative but not significantly different from the control to be a growth promoter)		
NCCC[C@@](N)(C(=O)O)C(F)F [MMV001625]	36%	16%		
COc1ccc(Cl)cc1NC(=O)CN(C)C(=O)c1cnn(-c2ccccc2)n1 [MMV020710]	43%	7.5%		
Cc1cc(Cl)c(S(=O)(=O)N2CCCC2)cc1OCC(=O)NC1CCCCC1 [MMV006833]	70%	17%		
Cc1ccc2nc(Cl)c(CNCc3cccs3)cc2c1 [MMV676439]	81%	70%		
CCOc1ccccc1NC(C)C(=O)Nc1cc(C(F)(F)F)ccc1N1CCOCC1 (stereo not drawn) [MMV407834]	X* (Mean or standard deviation are negative but not significantly different from the control to be a growth promoter)	33%		
COc1ccc(N(CCc2cccc(C)n2)C(C)=O)cc1 [MMV675995]	26%	26%		
Nc1ncnc2c1c(-c1cnc3ccccc3c1)nn2CC1CCNCC1 [MMV688411]	X* (Mean or standard deviation are negative but not significantly different from the control to be a growth promoter)	X* (Mean or standard deviation are negative but not significantly different from the control to be a growth promoter)		
O=C(NCc1ccoc1)N1CCN(Cc2ccc3c(c2)OCO3)CC1 [MMV688553]	56%	50%		
CCOc1ccc2cc(-c3nn(C(C)(C)C)c(N)c3C(N)=O)cnc2c1 [MMV688853]	96%	X* (Mean or standard deviation are negative but not significantly different from the control to be a growth promoter)	≥ 95	
CC(=O)NC[C@H]1CN(c2ccc(-c3ccc(CNCc4cn[nH]n4)cc3)c(F)c2)C(=O)O1 [MMV688327]	33%	21%		
FC(F)(F)c1ccc(N(c2cccnc2)C2CCN(c3ccc(C(F)(F)F)cn3)CC2)cc1 [MMV689243]	X* (Mean or standard deviation are negative but not significantly different from the control to be a growth promoter)	11%		
CCC(Sc1nc2ccccc2o1)C(=O)Nc1nccs1 (stereo not drawn) [MMV676383]	57%	88%		

Compound	Crypto (10 uM) Mean % inhibition [1]	Giardia (16 uM) Mean % inhibition [2]	C. parvum cell growth inhibition in the initial screen ([1]; 48 hours) [%]	EC50 ([1]; Nluc C. parvum in HCT-8 cells, 48 hours, read-out: C. parvum EC50) [µM]
CS(=O)(=O)c1ccc(C(=O)N(CC2CCCO2)c2nc3ccccc3s2)cc1[N+](=O)[O-] (stereo not drawn) [MMV688761]	77%	63%		
CC(C)NCC(=O)Nc1cccc(C(=O)Nc2cccc(C(F)(F)F)c2)c1 [MMV020165]	45%	81%		
CCc1nc2ccc(Cl)cn2c1C(=O)NCc1ccc(N2CCC(c3ccc(OC(F)(F)F)cc3)CC2)cc1 [MMV687696]	21%	26%		
O=C(NCCc1ccn(-c2ccccc2)n1)C1CCCCC1 [MMV688795]	X* (Mean or standard deviation are negative but not significantly different from the control to be a growth promoter)	29%		
Cc1cc(C)nc(-n2nc(C)cc2Nc2ccccc2)n1 [MMV062221]	50%	35%		
CCC(C)NC(=O)c1ccc(NC(=O)C2(c3ccccc3)CCCC2)cc1 (stereo not drawn) [MMV146306]	37%	X* (Mean or standard deviation are negative but not significantly different from the control to be a growth promoter)		
FC(F)(F)c1cc(NCCc2ccccc2)nc(-c2ccccn2)n1 [MMV659010]	15%	41%		
O=C(NC1CCCCC1)N1CCN(Cc2ccc3c(c2)OCO3)CC1 [MMV676444]	67%	30%		
COc1ccc(-c2cc(NC(=O)c3ccc(F)cc3Cl)ccc2OC)cc1 [MMV676526]	46%	87%		
CC(=O)Nc1ccc(-c2noc(CC3CCCN(Cc4cccc(F)c4C)C3)n2)cc1 (stereo not drawn) [MMV689061]	59%	17%		
N#Cc1ccc(-c2cnc(N)c(-c3ccc(C(N)=O)cc3)n2)cc1 [MMV085499]	95%	61%	≥ 95	1.93
COc1ccc(-c2nnc3ccc(-c4cccc(C(C)C)c4)cn23)cc1OC [MMV688313]	34%	26%		
Cc1ccc(Oc2ccc(NC(=O)CNc3ccccc3N3CCCC3=O)cc2)cc1 [MMV020512]	80%	X* (Mean or standard deviation are negative but not significantly different from the control to be a growth promoter)		
O=C(c1ccco1)N(CCCn1ccnc1)c1nc2c(Cl)cccc2s1 [MMV688936]	6.36%	31%		
c1ccc(Oc2ccc(-c3cc(N4CCNCC4)[nH]n3)cc2)cc1 [MMV687706]	X* (Mean or standard deviation are negative but not significantly different from the control to be a growth promoter)	30%		
NCCC(O)C(=O)N[C@@H]1C[C@H](N)[C@@H](OC2O[C@H](CN)[C@@H](O)[C@H](O)[C@H]2O)[C@H](O)C1OC1O[C@H](CO)[C@@H](O)[C@H](N)[C@H]1O (stereo partly drawn) [MMV687796]	82%	X* (Mean or standard deviation are negative but not significantly different from the control to be a growth promoter)		
Clc1cccc(CO[C@H]2CCc3ccccc3[C@@H]2n2ccnn2)c1 [MMV676159]	X* (Mean or standard deviation are negative but not significantly different from the control to be a growth promoter)	30%		
COC(=O)c1cccc2oc(-c3cccc(OC)c3NC(=O)c3cc(-c4ccccc4)on3)nc12 [MMV676186]	28%	19%		
